From patent publication US20240051968A1, “METHODS FOR TREATING SPINOCEREBELLAR ATAXIA TYPE 3” (PTC Therapeutics, Inc., priority 2021, published 2024)

Legend:
[1] = test system: Total ATXN3 (tATXN3) protein; assay: Endogenous Total ATXN3 (tATXN3) Protein Assay (MSD immunoassay of cell lysates); assay type: cell-based; conditions: cells incubated with compound 48 h; 7-point concentration curve; MSD detection in cell lysate
Procedure: Endogenous Total ATXN3 (tATXN3) Protein Assay
Meso Scale Discovery (MSD) 96-well or 384-well plates were coated overnight at 4° C. with Ataxin 3 mouse monoclonal antibody (Invitrogen, MA3-082) at a concentration of 0.5 μg/mL in PBS (30 μL per well). Plates were then washed three times with 300 μL wash buffer (0.05% TWEEN®-20, polyethylene glycol sorbitan monolaurate, in PBS) and blocked (Meso Scale Diagnostics, R93BA-1; 5% BSA in PBS) for 2 h at room temperature with rotational shaking and then washed three times with wash buffer.
(§1) Test compounds were serially diluted 3.16-fold in 100% DMSO to generate a 7-point concentration curve. Aliquots of 0.5 μL of diluted compounds were transferred to a 96-well flat bottom plate by a liquid handler. An aliquot of 0.5 μL DMSO was also transferred to separate wells and used as controls. Duplicate samples were set up for each compound concentration and for the DMSO control.
Cells were thawed and incubated in cell culture media (DMEM, 10% FBS, and 1% antibiotic cocktail) for 72 h. Cells were trypsinized, counted, and re-suspended to a concentration of 100,000 cells/mL in cell culture media. A 100 μL aliquot of the cell suspensions were plated at 10,000 cells per well in the compound containing 96 well microtiter plate and incubated for in a cell culture incubator (37° C., 5% CO2, 100% relative humidity). After 48 h, the medium was removed and 50-100 μL of lysis buffer (Meso Scale Diagnostics, R60TX-2) containing 1× halt protease inhibitor cocktail of (Thermo Scientific, Halt™ Protease Inhibitor Cocktail, 78430) per well was added to cells to provide a “cell lysate”. The plate was placed on a shaker at 4° C. for 30 minutes, then stored at −80° C.
Cell lysate samples (25 μL) were transferred to the antibody-coated MSD plate and incubated overnight at 4° C. After removal of the lysates, the plate was washed three times with wash buffer, and 25 μL of Ataxin 3 recombinant rabbit monoclonal antibody (Invitrogen, #702788) secondary antibody (diluted to 0.25 μg/mL in 0.05% TWEEN®-20 in blocking buffer) was added to each well and incubated with shaking for 1-2 h at room temperature. Following incubation with the secondary antibody, the wells were rinsed with wash buffer and then […] Anti Rabbit Antibody Goat SULFO-TAG Labeled (Meso Scale Diagnostics, R32AB-1) detecting antibody (diluted to 0.25 μg/mL in 0.05% TWEEN®-20 in blocking buffer) was added to each well and incubated with shaking for 1 h at room temperature. After rinsing three times with wash buffer, 150 μL of Read Buffer T with surfactant (tris-based buffer containing tripropylamine, Meso Scale Diagnostics, R92TC-1) were added to each empty well, and the plate was imaged on a SI 6000 imager (MSD) according to manufacturers' instructions provided for 96- or 384-well plates.

ATXN3 pre-mRNA = assay: RT-qPCR Assay to Quantify Exon 4 Skipping in ATXN3 pre-mRNA in Cells; assay type: cell-based; conditions: cells incubated with compound 24 h, 7-point concentration curve, GAPDH control
Procedure: as §1, with “RT-qPCR Assay to Quantify Exon 4 Skipping in ATXN3 pre-mRNA in Cells Test” for “Test”
Cells were thawed and incubated in cell culture media (DMEM, 10% FBS, and 1% antibiotic cocktail) for 72 h. Cells were trypsinized, counted, and re-suspended to a concentration of 100,000 cells/mL in cell culture media. A 100 μL aliquot of the cell suspensions were plated at 10,000 cells per well in the compound containing 96 well microtiter plate and incubated for in a cell culture incubator (37° C., 5% CO2, 100% relative humidity).
After 24 h, media was aspirated from the cells and 50 μL of the RCL2 lysis buffer (10 mM Tris-HCL pH 7.4, 150 mM NaCl, 0.33% IGEPAL® CA-630) was added to each well and incubated at room temperature for 1 min. Chilled nuclease free water (50 μL per well) was added and the plates were immediately transferred on ice. After 1 min on ice, plates were frozen at −80° C. overnight.
Preparation of RT-qPCR Reaction Mixture:
An aliquot of 2 μL/well of the cell lysates was transferred using the liquid handler to the Armadillo 384-Well PCR plate containing 8 μL/well of the RT-qPCR reaction mixture that was prepared as detailed above. The plates were then sealed with MicroAmp™ Optical Adhesive Film followed by spinning down for 1 min and placed in the CFX384 thermocycler (BioRad).
The RT-qPCR was carried out at the following temperatures for the indicated time: • Step 1: 48° C. (30 min) • Step 2: 95° C. (10 min) • Step 3: 95° C. (15 sec) • Step 4: 60° C. (1 min); then, repeated Steps 3 and 4 for a total of 40 cycles.
The percent exon 4 skipping was calculated for each dose of compound treatment using Equations 1 and 2.
Data were fit to a dose response curve and the IC50 was interpolated using XLfit® statistical and curve fitting package.
An IC50 value between >2.0 μM and ≤3.0 μM is indicated by one star (*). […] IC50 value between >0.5 μM and ≤1.0 μM is indicated by four stars (****). An IC50 value ≤0.5 μM is indicated by five stars (*****).

SMILES	IC50 [1]	IC50 (ATXN3 pre-mRNA)	IC50 (average), total ATXN3 protein [1]	IC50, exon 4 skipping in ATXN3 pre-mRNA (ATXN3 pre-mRNA)
COC[C@H](N)Cc1sc2c(NCc3ccco3)cc(Cl)nc2c1C [Cpd 45, 2-[(2R)-2-amino-3-methoxypropyl]-5-chloro-N-[(furan-2-yl)methyl]-3-methylthieno[3,2-b]pyridin-7-amine]	≤ 500 nM	≤ 500 nM		
C[C@H](N)C(O)c1sc2c(NCc3ccco3)cc(Cl)nc2c1Br (stereo partly drawn) [Cpd 153, (2S)-2-amino-1-(3-bromo-5-chloro-7-{[(furan-2-yl)methyl]amino}thieno[3,2-b]pyridin-2-yl)propan-1-ol]			inactive	inactive
Clc1cc(NCc2ccco2)c2scc(Br)c2n1 [Cpd 7, 3-bromo-5-chloro-N-[(furan-2-yl)methyl]thieno[3,2-b]pyridin-7-amine]		1000 to 1500 nM	inactive	
C[C@H](N)C(F)c1sc2c(NCc3cccs3)cc(Cl)nc2c1Br (stereo partly drawn) [Cpd 158, 2-[(2S)-2-amino-1-fluoropropyl]-3-bromo-5-chloro-N-[(thiophen-2-yl)methyl]thieno[3,2-b]pyridin-7-amine]	≤ 500 nM	≤ 500 nM		
Cc1c(C[C@@H](N)CF)sc2c(NCc3ccco3)cc(Cl)nc12 [Cpd 81, 2-[(2R)-2-amino-3-fluoropropyl]-5-chloro-N-[(furan-2-yl)methyl]-3-methylthieno[3,2-b]pyridin-7-amine]	≤ 500 nM	≤ 500 nM		
CSC[C@H](N)Cc1sc2c(NCc3ccco3)cc(Cl)nc2c1Cl [Cpd 114, 2-[(2R)-2-amino-3-(methylsulfanyl)propyl]-3,5-dichloro-N-[(furan-2-yl)methyl]thieno[3,2-b]pyridin-7-amine]	≤ 500 nM	≤ 500 nM		
C[C@H](N)C(F)(F)c1sc2c(NCc3cccs3)cc(Cl)nc2c1Cl [Cpd 132, 2-[(2S)-2-amino-1,1-difluoropropyl]-3,5-dichloro-N-[(thiophen-2-yl)methyl]thieno[3,2-b]pyridin-7-amine]	500 to 1000 nM	≤ 500 nM		
N[C@@H](CF)Cc1sc2c(NCc3ccco3)cc(Cl)nc2c1Cl [Cpd 94, 2-[(2R)-2-amino-3-fluoropropyl]-3,5-dichloro-N-[(furan-2-yl)methyl]thieno[3,2-b]pyridin-7-amine]	≤ 500 nM	≤ 500 nM		
Cc1c(C[C@@H](N)CC(C)C)sc2c(NCc3cccs3)cc(Cl)nc12 [Cpd 61, 2-[(2S)-2-amino-4-methylpentyl]-5-chloro-3-methyl-N-[(thiophen-2-yl)methyl]thieno[3,2-b]pyridin-7-amine]	≤ 500 nM	≤ 500 nM		
COC[C@H](N)Cc1sc2c(NCc3ccco3)cc(Cl)nc2c1Br [Cpd 44, 2-[(2R)-2-amino-3-methoxypropyl]-3-bromo-5-chloro-N-[(furan-2-yl)methyl]thieno[3,2-b]pyridin-7-amine]	≤ 500 nM	≤ 500 nM		
Clc1cc(NCc2ccco2)c2scc(Cl)c2n1 [Cpd 6, 3,5-dichloro-N-[(furan-2-yl)methyl]thieno[3,2-b]pyridin-7-amine]			inactive	inactive
N#CC[C@H](N)Cc1sc2c(NCc3ccco3)cc(Cl)nc2c1Br [Cpd 103, (3S)-3-amino-4-(3-bromo-5-chloro-7-{[(furan-2-yl)methyl]amino}thieno[3,2-b]pyridin-2-yl)butanenitrile]	≤ 500 nM	≤ 500 nM		
N[C@H](Cc1sc2c(NCc3ccco3)cc(Cl)nc2c1Cl)C(=O)Nc1ccccc1F [Cpd 120, 3-(3,5-dichloro-7-{[(furan-2-yl)methyl]amino}thieno[3,2-b]pyridin-2-yl)-N-(2-fluorophenyl)-D-alaninamide]	500 to 1000 nM	≤ 500 nM		
C[C@@H](O)[C@H](N)Cc1sc2c(NCc3ccco3)cc(Cl)nc2c1Br [Cpd 165, (2R,3R)-3-amino-4-(3-bromo-5-chloro-7-{[(furan-2-yl)methyl]amino}thieno[3,2-b]pyridin-2-yl)butan-2-ol]	≤ 500 nM	≤ 500 nM		
Cc1c(C[C@H](C)N)sc2c(NCc3ccco3)cc(Cl)nc12 [Cpd 18, 2-[(2S)-2-aminopropyl]-5-chloro-N-[(furan-2-yl)methyl]-3-methylthieno[3,2-b]pyridin-7-amine]	≤ 500 nM	≤ 500 nM		
C[C@H](N)C(F)c1sc2c(NCc3ccco3)cc(Cl)nc2c1Br (stereo partly drawn) [Cpd 154, 2-[(2S)-2-amino-1-fluoropropyl]-3-bromo-5-chloro-N-[(furan-2-yl)methyl]thieno[3,2-b]pyridin-7-amine]	≤ 500 nM	≤ 500 nM		
CSC[C@H](N)Cc1sc2c(NCc3ccco3)cc(Cl)nc2c1Br [Cpd 118, 2-[(2R)-2-amino-3-(methylsulfanyl)propyl]-3-bromo-5-chloro-N-[(furan-2-yl)methyl]thieno[3,2-b]pyridin-7-amine]	≤ 500 nM	≤ 500 nM		
CS(=O)(=O)C[C@H](N)Cc1sc2c(NCc3ccco3)cc(Cl)nc2c1Cl [Cpd 113, 2-[(2R)-2-amino-3-(methanesulfonyl)propyl]-3,5-dichloro-N-[(furan-2-yl)methyl]thieno[3,2-b]pyridin-7-amine]	≤ 500 nM	≤ 500 nM		
C[C@H](N)Cc1cc2nc(Cl)cc(NCc3ccco3)c2s1 [Cpd 16, 2-[(2S)-2-aminopropyl]-5-chloro-N-[(furan-2-yl)methyl]thieno[3,2-b]pyridin-7-amine]	≤ 500 nM	≤ 500 nM		
Cc1c(CCN)sc2c(NCc3ccco3)cc(Cl)nc12 [Cpd 152, 2-(2-aminoethyl)-5-chloro-N-[(furan-2-yl)methyl]-3-methylthieno[3,2-b]pyridin-7-amine]			inactive	inactive
Cc1c(C[C@@H](N)[C@H](C)F)sc2c(NCc3cccs3)cc(Cl)nc12 [Cpd 126, 2-[(2R,3S)-2-amino-3-fluorobutyl]-5-chloro-3-methyl-N-[(thiophen-2-yl)methyl]thieno[3,2-b]pyridin-7-amine]	≤ 500 nM	≤ 500 nM		
Cc1c(C[C@@H](N)CC#N)sc2c(NCc3cccs3)cc(Cl)nc12 [Cpd 105, (3S)-3-amino-4-(5-chloro-3-methyl-7-{[(thiophen-2-yl)methyl]amino}thieno[3,2-b]pyridin-2-yl)butanenitrile]	≤ 500 nM	≤ 500 nM		
CSC[C@H](N)Cc1sc2c(NCc3ccco3)cc(Cl)nc2c1C [Cpd 104, 2-[(2R)-2-amino-3-(methylsulfanyl)propyl]-5-chloro-N-[(furan-2-yl)methyl]-3-methylthieno[3,2-b]pyridin-7-amine]	≤ 500 nM	≤ 500 nM		
